# Experimental data as given in patent publication US9688661B2, “Substituted pyrroles active as kinases inhibitors” (NERVIANO MEDICAL SCIENCES S.R.L., priority 2012, dated 2017).
# Key:
# [1] = tested on: IL-2 dependent human T lymphoma cell line DERL-7; assay: Cell proliferation assay, DERL-7; type: cell-based; conditions: DERL7; DERL-7 cells, 20 ng/ml human IL-2, 72 hours, CellTiter-Glo
# Experimental: the JAK2 dependent human megakaryoblastic leukemia cell line SET-2 (DSMZ, Braunschweig GERMANY), and JAK2 independent human chronic myelogenous leukaemia cell line K562 (ECACC, Wiltshire, UK) were cultured in RPMI-1640 medium-Glutamax (Gibco BRL, Gaithesburg, Md., USA), supplemented with 10% fetal bovine serum (FBS) at 37° C. and 5% CO2. The IL-2 dependent human T lymphoma cell line DERL-7 (DSMZ, Braunschweig GERMANY) was used to test the activity of compounds in cells on JAK1/JAK3 kinases activated by IL-2. The DERL-7 cell lines were cultured in RPMI-1640 medium-Glutamax (Gibco BRL, Gaithesburg, Md., USA), supplemented with 20% FBS and 20 ng/ml of human IL-2 (Sigma-Aldrich, St. Louis, Mo., USA).
# Approximately 5×10^3 cells were plated into 384 microtiter plate wells in 50 μL of growth media with different concentrations of inhibitors. The cells were incubated at 37° C. and 5% CO2 for 72 hours, than the plates were processed using CellTiter-Glo assay (Promega, Madison, Wis., USA) following the manufacturer's instruction. Briefly 25 μL/well reagent solution are added to each wells and after 5 minutes shacking micro-plates are read by Envision luminometer (PerkinElmer, Waltham, Mass., USA).
# (§1) Data are analyzed by Symix Assay Explorer software (Symix Technologies Inc.) that provides sigmoidal fitting algorithm of the 8 points dilutions curves for IC50 determination.
# [2] = tested on: JAK2 dependent human megakaryoblastic leukemia cell line SET-2; assay: Cell proliferation assay, SET-2; type: cell-based; conditions: SET-2 cells, 72 hours, CellTiter-Glo
# [3] = tested on: JAK2 independent human chronic myelogenous leukaemia cell line K562; assay: Cell proliferation assay, K562; type: cell-based; conditions: K562 cells, 72 hours, CellTiter-Glo, read-out: IC50 K-562
# TYK2 kinase domain = TYK2 kinase domain (Homo sapiens (Human), UniProt P29597); assay: Biochemical assay for inhibitors of JAK kinase activity, TYK2; conditions: TYK2 kinase domain 3 nM, 31 μM ATP
# Experimental: (§2) Specific JAK2, JAK1 or JAK3 peptide substrates are trans-phosphorylated by JAK kinases in the presence of ATP traced with 33P-γ-ATP. At the end of the phosphorylation reaction, the unreacted ATP, cold and radioactive, is captured by an excess of dowex ion exchange resin that eventually settles by gravity to the bottom of the reaction plate. The supernatant is subsequently withdrawn and transferred into a counting plate that is then evaluated by β-counting.
# (§3) 500 g of wet resin (SIGMA, custom prepared resin DOWEX 1×8 200-400 mesh, 2.5 Kg) are weighed out and diluted 2 to 1 in 150 mM sodium formate, pH 3.00. The resin is allowed to settle down overnight and then the supernatant is discarded. After three washes as above over a couple of days, the resin is allowed to settle and two volumes (with respect to the resin volume) of 150 mM sodium formate buffer are added.
# (§4) Kinase buffer was composed of 50 mM HEPES pH 7.5 containing 10 mM MgCl2, 2.5 mM DTT, 10 μM Na3VO4 and 0.2 mg/mL BSA.
# (§5) The peptidic substrate was purchased from American Peptide Company (Sunnyvale, Calif.).
# as §1
# JAK1 kinase domain = JAK1 kinase domain (Homo sapiens (Human), UniProt P23458); assay: Biochemical assay for inhibitors of JAK kinase activity, JAK1; conditions: preactivated JAK1 kinase domain 2.5 nM, 100 μM ATP
# Experimental: as §2, §3, §4
# Assays were performed with the JAK1 kinase domain (residues 861-1152 of the 1154 amino acid long full-length sequence, accession number P23458 of UniProtKB/Swiss-Prot database).
# The JAK1 kinase domain was preactivated with ATP for 1 h at 28° C. in order to obtain a linear kinetic.
# as §5, §1
# JAK2 kinase domain = JAK2 kinase domain (Homo sapiens (Human), UniProt O60674); assay: Biochemical assay for inhibitors of JAK kinase activity, JAK2; conditions: JAK2 kinase domain 1 nM, 60 μM ATP
# Experimental: as §2, §3, §4, §5, §1
# Sequence of TYK2 kinase domain (P29597 833-1187): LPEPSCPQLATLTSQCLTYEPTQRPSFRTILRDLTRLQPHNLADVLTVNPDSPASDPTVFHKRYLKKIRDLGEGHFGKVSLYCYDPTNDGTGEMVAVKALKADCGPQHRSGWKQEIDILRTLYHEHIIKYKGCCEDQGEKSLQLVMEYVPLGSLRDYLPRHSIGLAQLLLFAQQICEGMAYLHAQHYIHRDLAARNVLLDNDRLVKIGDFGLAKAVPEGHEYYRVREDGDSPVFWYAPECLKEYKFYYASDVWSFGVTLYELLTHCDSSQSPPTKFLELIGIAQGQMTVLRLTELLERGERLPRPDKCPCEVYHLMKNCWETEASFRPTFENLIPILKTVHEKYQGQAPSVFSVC
# Sequence of JAK2 kinase domain (O60674 849-1124): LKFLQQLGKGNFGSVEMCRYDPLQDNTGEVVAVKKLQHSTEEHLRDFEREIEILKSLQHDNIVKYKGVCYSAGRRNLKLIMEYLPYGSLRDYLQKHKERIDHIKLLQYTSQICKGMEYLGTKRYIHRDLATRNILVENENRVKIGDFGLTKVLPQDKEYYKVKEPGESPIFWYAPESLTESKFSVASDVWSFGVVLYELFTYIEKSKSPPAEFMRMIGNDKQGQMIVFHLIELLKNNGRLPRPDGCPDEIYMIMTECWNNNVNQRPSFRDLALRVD
# Sequence of JAK1 kinase domain (P23458 861-1152): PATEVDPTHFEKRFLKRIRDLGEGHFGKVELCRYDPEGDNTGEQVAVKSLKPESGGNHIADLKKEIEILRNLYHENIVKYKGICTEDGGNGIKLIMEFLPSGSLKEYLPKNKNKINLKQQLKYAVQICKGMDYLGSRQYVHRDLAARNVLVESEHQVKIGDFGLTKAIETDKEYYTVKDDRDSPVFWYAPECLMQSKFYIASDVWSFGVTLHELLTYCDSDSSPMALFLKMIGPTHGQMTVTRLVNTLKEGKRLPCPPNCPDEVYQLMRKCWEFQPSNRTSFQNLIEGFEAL
Structure (SMILES),IC50 [1],IC50 [2],IC50 [3],IC50 (TYK2 kinase domain),IC50 (JAK1 kinase domain),IC50 (JAK2 kinase domain)
"CCc1ccc(C(F)(F)F)cc1-c1[nH]c(-c2ncnc3[nH]ccc23)cc1C(N)=O [compd 220, 2-[2-Ethyl-5-(trifluoromethyl)phenyl]-5-(7H-pyrrolo[2,3-d]pyrimidin-4-yl)-1H-pyrrole-3-carboxamide]",0.591 µM,0.15 µM,6.87 µM,0.02 µM,0.019 µM,0.002 µM
"Cc1ccc(Cl)cc1-n1cc(-c2ncnc3[nH]ccc23)cc1C(N)=O [compd 229, 1-(5-Chloro-2-methylphenyl)-4-(7H-pyrrolo[2,3-d]pyrimidin-4-yl)-1H-pyrrole-2-carboxamide]",0.463 µM,0.08 µM,> 10 µM,0.002 µM,0.003 µM,0.001 µM
"Cc1ccc(Cl)cc1-n1cc(-c2ncnc3c2CCN3)cc1C(N)=O [compd 234, 1-(5-Chloro-2-methylphenyl)-4-(6,7-dihydro-5H-pyrrolo[2,3-d]pyrimidin-4-yl)-1H-pyrrole-2-carboxamide]",0.208 µM,0.26 µM,> 10 µM,0.008 µM,0.008 µM,0.006 µM
"CCc1ccc(Cl)cc1-n1cc(-c2ncnc3c2CCN3)cc1C(N)=O [compd 241, 1-(5-Chloro-2-ethylphenyl)-4-(6,7-dihydro-5H-pyrrolo[2,3-d]pyrimidin-4-yl)-1H-pyrrole-2-carboxamide]",1.3 µM,0.31 µM,> 10 µM,0.016 µM,0.008 µM,0.005 µM

# Further lines, results first:
IC50 [1],IC50 [2],IC50 [3],IC50 (TYK2 kinase domain),IC50 (JAK1 kinase domain),IC50 (JAK2 kinase domain),Structure (SMILES)
0.146 µM,0.06 µM,7.23 µM,0.003 µM,0.004 µM,0.001 µM,"NC(=O)c1cc(-c2ncnc3[nH]ccc23)cn1-c1cc(C(F)(F)F)ccc1Cl [compd 244, 1-[2-Chloro-5-(trifluoromethyl)phenyl]-4-(7H-pyrrolo[2,3-d]pyrimidin-4-yl)-1H-pyrrole-2-carboxamide]"
1.79 µM,0.55 µM,1.89 µM,0.043 µM,0.085 µM,0.017 µM,"Cc1ccc(Cl)cc1-c1cn(-c2ncnc3[nH]ccc23)cc1C(N)=O [compd 270, 4-(5-Chloro-2-methylphenyl)-1-(7H-pyrrolo[2,3-d]pyrimidin-4-yl)-1H-pyrrole-3-carboxamide]"
0.469 µM,0.13 µM,6.61 µM,0.01 µM,0.001 µM,0.001 µM,"CCc1ccc(Cl)cc1-c1[nH]c(-c2cc(NC)ncn2)cc1C(=O)NC [compd 302, 2-(5-Chloro-2-ethylphenyl)-N-methyl-5-[6-(methylamino)pyrimidin-4-yl]-1H-pyrrole-3-carboxamide]"
0.548 µM,0.25 µM,> 10 µM,0.038 µM,0.009 µM,0.003 µM,"CCc1ccc(C(F)(F)F)cc1-c1[nH]c(-c2cc(N)ncn2)cc1C(=O)NC [compd 321, 5-(6-Aminopyrimidin-4-yl)-2-[2-ethyl-5-(trifluoromethyl)phenyl]-N-methyl-1H-pyrrole-3-carboxamide]"
0.51 µM,0.22 µM,> 10 µM,0.022 µM,0.006 µM,0.003 µM,"CCc1ccc(C(F)(F)F)cc1-c1[nH]c(-c2ncnc3[nH]ccc23)cc1C(=O)NC [compd 323, 2-[2-Ethyl-5-(trifluoromethyl)phenyl]-N-methyl-5-(7H-pyrrolo[2,3-d]pyrimidin-4-yl)-1H-pyrrole-3-carboxamide]"
